{"source": "patent US8410045B2", "about": "“Camptothecin-peptide conjugates and pharmaceutical compositions containing the same” (Drais Pharmaceuticals, Inc., priority 2006, dated 2013)", "key": {"[1]": {"test_system": "HCT 116 human epithelial colon carcinoma cells", "experiment": "cells", "assay_type": "cell-based"}, "[2]": {"experiment": "Stability of conjugates in citrated plasma at 37° C. (half life time, HPLC fluorescence)", "assay_type": "in vitro ADME, human", "settings": "for half-life: human, plasma", "in_short": "(§1)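 Conjugates at 2.55 μM incubated at 37° C in citrated plasma of several species, including human and dog. After TFA/acid extraction, released free camptothecin derivative (e.g. SN38) measured by reversed-phase C18 HPLC with fluorescence detection; half-life taken as time to 50 mol% release.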"}, "[3]": {"experiment": "Stability of conjugates in citrated plasma at 37° C. (half life time, HPLC fluorescence)", "assay_type": "in vitro ADME", "settings": "dog", "in_short": "as §1"}, "[4]": {"test_system": "HT-29 tumors", "experiment": "Combination of DPV1047-BCH-SN38 with 5-FU or bevacizumab in the HT-29 tumor model", "settings": "i.v.", "experimental": "Mice were implanted with HT-29 tumors and treated by intraperitoneal administration (bevacizumab) or bolus intravenous injection (5-FU or DPV1047-BCH-SN38) at 10 μL/g. […] The T/C ratio was calculated following treatment with either bevacizumab, 5-FU or DPV1047-BCH-SN38. These T/C ratios were used to evaluate the expected T/C for combined treatment with bevacizumab and DPV1047-BCH-SN38, or 5-FU and DPV1047-BCH-SN38 (T/C of DPV1047-BCH-SN38×T/C of bevacizumab or 5-FU). […] The combination index of the two molecules was calculated by dividing the expected T/C by the observed T/C."}, "[5]": {"test_system": "NCI-H460 human epithelial lung carcinoma cells", "experiment": "In vitro cytotoxicity (WST-1 cell viability)", "assay_type": "cell-based", "settings": "24 h"}, "[6]": {"test_system": "HCT 116 human colorectal carcinoma tumor"}, "[7]": {"settings": "Table 3, 30 (cumulative 90) μmol/kg, i.v. bolus, Q4Dx3"}, "[8]": {"settings": "Table 7, i.v. Q2D3 × 3 W, 25 μmol/kg"}}, "note": "Read-outs that look alike come from different tables or passages of the source. Marks after values point to notes of the source that are not given here."}
{"molecule": "CCc1c2c(nc3ccc(OC(=O)[C@H]4CC[C@H](CNC(=O)C5CCC(CN6C(=O)CC(SC[C@H](N)C(=O)N[C@H](C(=O)N[C@@H](CCCCN)C(=O)N[C@@H](CCCNC(=N)N)C(=O)NCC(=O)N[C@@H](CC(C)C)C(=O)N[C@@H](CCCCN)C(=O)N[C@@H](CC(C)C)C(=O)N[C@@H](CCCNC(=N)N)C(=O)N[C@@H](Cc7c[nH]cn7)C(=O)N[C@H](C(=O)N[C@@H](CCCNC(=N)N)C(=O)N7CCC[C@H]7C(=O)N[C@@H](CCCNC(=N)N)C(=O)N[C@H](C(=O)N[C@H](C(=O)N[C@@H](CCCNC(=N)N)C(=O)N[C@@H](CCSC)C(=O)N[C@@H](CC(=O)O)C(=O)N[C@H](C(=O)O)C(C)C)[C@@H](C)O)C(C)C)C(C)C)C(C)C)C6=O)CC5)CC4)cc13)-c1cc3c(c(=O)n1C2)COC(=O)[C@]3(O)CC", "note": "(single isomer, unassigned) [DPV1047-BCH-SN38]", "values": [{"measurement": "IC50", "setting": "[1]; 24 h", "value": 24, "unit": "nM"}, {"measurement": "IC50", "setting": "[1]; 48 h", "value": 29, "unit": "nM"}, {"measurement": "half life time, times longer than the DPV1047-linker #2-SN38 conjugate", "setting": "[2]; human plasma", "value": 60, "unit": "times"}, {"measurement": "half-life", "setting": "[2]; DPV1047-linker-SN38, 2.55 μM, citrated plasma, read-out: Half life time, Human plasma", "value": 6.67, "unit": "h"}, {"measurement": "half-life", "setting": "[2]; Table 10, SN38 conjugates, read-out: Human Plasma Half life time", "value": 6, "unit": "h"}, {"measurement": "half-life", "setting": "[2]; Table 12, CPP-linker #5-SN38 conjugates incl. D conformation, read-out: Human Plasma Half life time", "value": 6.37, "unit": "h"}, {"measurement": "half-life", "setting": "[3]; DPV1047-linker-SN38, 2.55 μM, citrated plasma, read-out: Half life time, Dog plasma", "value": 4.5, "unit": "h"}, {"measurement": "half-life", "setting": "[3]; Table 10, SN38 conjugates, read-out: Dog Plasma Half life time", "value": 4.33, "unit": "h"}, {"measurement": "half-life", "setting": "[3]; Table 12, CPP-linker #5-SN38 conjugates incl. D conformation, read-out: Dog Plasma Half life time", "value": 4, "unit": "h"}, {"measurement": "Single treatment DPV1047-BCH-SN38 T/C %", "setting": "[4]; 12.5 μmol/kg, 5-FU combination experiment", "value": 68, "unit": "%"}, {"measurement": "Single treatment DPV1047-BCH-SN38 T/C %", "setting": "[4]; 12.5 μmol/kg, bevacizumab combination experiment", "value": 77, "unit": "%"}, {"measurement": "Single treatment DPV1047-BCH-SN38 T/C %", "setting": "[4]; 25 μmol/kg, 5-FU combination experiment", "value": 50, "unit": "%"}, {"measurement": "Single treatment DPV1047-BCH-SN38 T/C %", "setting": "[4]; 25 μmol/kg, bevacizumab combination experiment", "value": 69, "unit": "%"}, {"measurement": "IC50", "setting": "[5]", "value": 40, "unit": "nM"}, {"measurement": "clinical signs of toxicity such as body weight loss, diarrhea or alopecia", "setting": "[6]; HCT 116 tumor-bearing nude mice, conjugates administered at their MADs", "value": "No clinical signs of toxicity"}, {"measurement": "Minimal T/C (%)", "setting": "[6]; [7]", "value": 10, "unit": "%"}, {"measurement": "TGI %", "setting": "[6]; [7]", "value": 80, "unit": "%"}, {"measurement": "TGI (100-T/C %)", "setting": "[6]; Table 5, Q1D5, 18 (cumulative 90) μmol/kg", "value": "93*** %"}, {"measurement": "Minimal T/C (%)", "setting": "[6]; Table 5, Q1D5, 18 (cumulative 90) μmol/kg, i.v. bolus", "value": 7, "unit": "%"}, {"measurement": "Minimal T/C (%)", "setting": "[6]; Table 5, Q2D3x3W, DPV1047-BCH-SN38 25 (225), irinotecan 48 (432) μmol/kg", "value": 3, "unit": "%"}, {"measurement": "TGI (100-T/C %)", "setting": "[6]; Table 5, Q2D3x3W, DPV1047-BCH-SN38 25, irinotecan 48 μmol/kg", "value": "97*** %"}, {"measurement": "Optimal T/C %", "setting": "[6]; [8]", "value": 3.4, "unit": "%"}, {"measurement": "TGI %", "setting": "[6]; [8]", "value": 96.6, "unit": "%"}, {"measurement": "Minimal T/C (%)", "setting": "[6]; mouse, in vivo", "value": 10, "unit": "%"}, {"measurement": "TGI (100-T/C %)", "setting": "[6]; mouse, in vivo", "value": "90*** %"}]}
